US20100160228A1, “METHOD FOR INHIBITING OR STIMULATING ANGIOGENESIS IN AN INDIVIDUAL” (VALTION TEKNILLINEN TUTKIMUSKESKUS, priority 2007, published 2010)

Legend:
Type in all cases: cell-based, human
[1] = system: VEGFR2; assay: VEGFR2 kinase activity from HUVEC lysates (Kinase-Glo Plus); settings: FIG. 4B
Description: (A) Serum-starved subconfluent HUVEC were treated for 1 h with α1 integrin cytoplasmic tail fusion peptide (α1TAT) or TAT-scramble control fusion peptide (ScrTAT) (both at 200 nM) followed by VEGF-induction (100 ng/ml, 15 min) where indicated. Cell lysates were resolved on SDS-PAGE and immunoblotted for phosphorylated VEGFR2 (or tubulin as a control). (B) HUVEC were treated as in (A) and VEGFR2 kinase activity (mean±SD, n=3) was measured from the cell lysates. **, p<0.01. (C) Recombinant, purified TCPTP was incubated with α1 or α2 cytoplasmic tail peptides (L-amino acids) or with α1 and scrambled TAT peptides (D-amino acids) and analyzed for phosphatase activity (mean±SD, n=3).
VEGFR2 kinase activity was studied using Kinase-Glo Plus kinase assay kit according to manufacturer's protocol (Promega) with 25 µM ATP. Briefly, HUVEC plated on gelatin were serum-starved overnight, treated with 400 nM α1TAT or ScrTAT or left untreated and stimulated with 100 ng/ml VEGF for 15 min, when indicated. The cells were lysed to ice-cold lysis buffer (1% NP-40, 20 mM Hepes pH 7.4, 150 mM NaCl, 10% glycerol, 2.5 mM EDTA, complete protease inhibitor (Roche) and phosphatase inhibitor coctails I and II (Sigma)). The lysates were incubated in anti-VEGFR2 or control IgG-coated wells with shaking for 2 h and washed 3 times with lysis buffer and 3 times with cold kinase assay buffer (20 mM Hepes pH 8, 0.1 mM Na3VO4, 10 mM MnCl2, 1 mM DTT). Kinase assay was performed for 10 min at +37° C.

[2] = system: HUVEC; assay: Fibrin-gel in vitro angiogenesis (capillary tube formation) assay; settings: VEGF, 24 h, FIG. 5A
Description: (§1) FIG. 5. Controlled TCPTP activation inhibits VEGF-driven capillary formation, chemokinesis and chemotaxis. (A) HUVEC were cultured in fibrin gels and treated with or without VEGF and TAT peptides (200 nM). After 24 h the formation of capillary tubes was semiquantitatively scored. (B) HUVEC were plated on gelatin in the presence of the peptides (200 nM) or left untreated for 1 h. The cells were stimulated as indicated and migration of individual cells was tracked using time-lapse microscopy. Cumulative migration distance was plotted for randomly picked individual cells. (C) HUVEC were treated with 200 nM peptides and the transmigration assay was performed as in FIG. 3D. (D) HUVEC were transfected with siRNA against TCPTP or a control siRNA, and TCPTP expression was analysed with immunofluorescence. Equal exposures of TCPTP (green) and DAPI (blue) stainings are shown. 48 h post-transfection cells were subjected to transmigration assay as in […].
Tube formation assays. In the fibrin-gel in vitro angiogenesis assay (Chemicon) HUVEC were plated onto a fibrin-gel, and overlaid with a second fibrin-gel after an overnight culture. […] At the 24 h end-point the formation of cellular networks was quantified from three randomly-selected fields from each well. […] In the collagen overlay assay the number of closed polygons formed by capillary tubes was quantified.

[3] = system: HUVEC; assay: Transwell chemotaxis assay towards VEGF
Description: FIG. 3. TCPTP activity controls VEGF-dependent responses in endothelial cells. (A) HUVEC were transfected with the constitutively active TCPTP (TC37) or vector control (pCG), stimulated or not with VEGF, and stained for VEGFR2 (red) and nuclei (blue) after fixation and permeabilization. Arrows indicate VEGFR2 vesicles. (B) HUVEC were treated as in (A) and subjected to trypsin digestion on ice. VEGFR2 protected from trypsin (=internalized pool) was detected by immunoblotting. The intensities of VEGFR2 bands were quantified and are expressed relative to pCG-VEGF control. A representative experiment out of 2 with similar results is shown. (C) HUVEC were transfected with no oligo, siRNA against TCPTP or a control siRNA, and TCPTP expression was measured using immunoblotting. Cells were treated with 80 ng/ml VEGF and proliferation of sparse cells plated on gelatin was assayed after 16 h using BrdU-based assay (mean±SD; n=4-6; *, p<0.05). (D) HUVEC were transfected as in (A) and chemotaxis towards VEGF was measured using a Transwell assay for 4 hours. Cells adhering to the bottom of the filter were fixed and stained with crystal violet. Number of migrated cells was counted (mean±SEM, n=3).
as §1
Chemotaxis assays. HUVEC electroporated with the DNA or siRNA or non-transfected HUVEC were treated with 200 nM α1TAT, ScrTAT or left untreated for 1 h. Transwell filters (8 μm pore size, Costar, Cambridge, Mass.) were coated with gelatin and medium (RPMI, 4 mM L-glutamine, 10% FBS) and VEGF (100 ng/ml) were added to the lower chamber. Cells were harvested from the culture plates, and transferred into the Transwell inserts (4×10^5 cells/well) in RPMI with 0.2% soybean trypsin inhibitor. […] The inserts were fixed in 4% paraformaldehyde, cells stained with 0.5% crystal violet and the number of migrated cells was counted using a microscope.

[4] = HUVEC, 48 h post-transfection, FIG. 5D

| Sequence | increase of VEGFR2 kinase activity upon VEGF-stimulation ([1]; HUVEC treated with no peptide or with scrambled control TAT peptide) | inhibition of capillary tube formation compared to control peptide treated cells [2] | inhibition of capillary tube formation compared to non-treated cells [2] | kinase activity of VEGFR2 in VEGF-treated HUVEC ([1]; VEGF 100 ng/ml 15 min) | effect on VEGF induced chemotaxis of TCPTP siRNA-treated cells [3, 4] | effect on VEGF-induced migration of scrambled siRNA treated cells [3, 4] | inhibition of VEGF-induced chemotaxis of HUVEC ([3]; peptide 200 nM, Transwell 4 h, FIG. 5C) |
| --- | --- | --- | --- | --- | --- | --- | --- |
| YGRKKRRQRRRLKGWRFKLKPKFKEMK (SEQ ID NO 8) [ScrTAT, reference compound] | about 10 fold | – | – | – | – | – | – |
| YGRKKRRQRRRWKLGFFKRPLKKKMEK (SEQ ID NO 3) [α1TAT] | – | 40% | 60% | completely abolished | no inhibitory effects | effectively inhibited | inhibited |
